The text below walks through data of patent publication US11993591B2, “Chromen-4-one derivatives for the treatment and prophylaxis of hepatitis B virus disease” (Hoffmann-La Roche Inc., priority 2018, dated 2024).

Experiment [1] has as its system HBV cccDNA (HBeAg level) in HepDES19 cells. In words: Engineered HepDES19 primary screen assay (HBeAg as surrogate marker for cccDNA). Format: cell-based. The note with it: Hepatitis B virus, HepDES19, 120 h. An excerpt:
The assay was employed to screen for novel cccDNA inhibitors. HepDES19 is a cccDNA-producing cell line. In this cell line, HBeAg in the cell culture supernatant as surrogate marker, as HBeAg production depends on cccDNA level and activity. HepDES19 is an engineered cell line which contains a 1.1 unit length HBV genome, and pgRNA transcription from the transgene is controlled by Tetracycline (Tet). In the absence of Tet, pgRNA transcription will be induced, but HBV e antigen (HBeAg) could not be produced from this pgRNA due to very short leader sequence before the HBeAg start codon and the start codon is disrupted. Only after cccDNA is formed, the missing leader sequence and start codon mutation would be restored from the 3′-terminal redundancy of pgRNA, and then HBeAg could be synthesized. Therefore, HBeAg could be used as a surrogate marker for cccDNA (Zhou, T. et al., Antiviral Res. (2006), 72(2), 116-124; Guo, H. et al., J. Virol. (2007), 81(22), 12472-12484).
HepDES19 cells were seeded at 2×10^6 cells per T150 flask and cultured with the culture medium (Dulbecco's Modified Eagle Medium: Nutrient Mixture F-12 [DMEM-F12, Gibco Cat. 11320-82], 10% Fetal Bovine Serum [FBS, Clontech Cat. 631101], 0.1 mM Non-Essential Amino Acids Solution [NEAA, Gibco Cat. 11140-050], 50 μg/mL Penicillin-Streptomycin [PS, Invitrogen Cat. 15140-163], 500 μg/mL Geneticin [G418, Invitrogen Cat. 10131-027]) containing 3 μg/mL Tet (Sigma, Cat. 87128) for 5 days. Cells were then seeded at 4×10^6 cells per T150 in the same culture medium as described above in the absence of Tet for 8 days. Cells were then harvested and frozen at density of 2×10^6 cells per mL. For compound testing, the frozen cells were thawed and seeded into 96-well plates at a density of 6×10^4 cells per well. At 24 hours after seeding, half log serial dilutions of compounds made with Dimethyl sulfoxide (DMSO, Sigma, Cat. D2650) were further diluted with the same culture medium as described above before they were added to the cells to reach desired final compound concentrations and 1% DMSO concentration. Plates were then incubated at 37° C. for another 5 days before measurement of HBeAg level and cell viability. Intracellular HBeAg level were measured with enzyme-linked immunosorbent assay (ELISA) kit (Shanghai Kehua Diagnostic Medical Products Co., Ltd). Cell viability was assessed using Cell Counting Kit-8 (Donjindo, Cat. CK04-20). IC50 values were derived from the dose-response curve using 4 parameter logistic curve fit method.
The compounds of the present invention were tested for their capacity to inhibit extracellular HBeAg level as described herein.

Experiment [2] relates to HBV (extracellular HBsAg) in primary human hepatocytes. The experiment is described as follows: Cryopreserved Primary Human Hepatocytes (PHH) HBV infection assay. The class given is cell-based. The note with it: Hepatitis B virus, Hepatocyte, 216 h; extracellular HBsAg (CLIA), HBV-infected cryopreserved PHH, 9 days post-compound treatment. How it is done: This assay is used to confirm the anti-HBV effect of the compounds in HBV PHH infection assay. Cryopreserved PHH (BioreclamationIVT, Lot YJM) was thawed at 37° C. and gently transferred into pre-warmed InVitroGRO HT medium (BioreclamationIVT, Cat. S03317).
The mixture was centrifuged at 70 relative centrifugal force (RCF) for 3 mins at RT, and the supernatant was discarded. Pre-warmed InVitroGRO CP medium (BioreclamationIVT, Cat #S03316) was added to the cell pellet to gently re-suspend cells. The cells were seeded at the density of 5.8×10^4 cells per well to collagen I coated 96-well plate (Gibco, Cat. A1142803) with the InVitroGRO CP medium. All plates were incubated at 37° C. with 5% CO2 and 85% humidity.
At 20 hours after plating, the medium was changed to PHH culture medium (Dulbecco's Modified Eagle Medium (DMEM)/F12 (1:1) (Gibco, Cat. 11320-033), 10% fetal bovine serum (Gibco Cat. 10099141), 100 U/mL penicillin, 100 μg/mL streptomycin (Gibco, Cat. 151401-122), […] (Invitrogen Cat. PHG0311L), 20 ng/mL dexamethasone (Sigma, Cat. D4902) and 250 ng/mL human recombinant insulin (Gibco, Cat. 12585-014)). And the cells were incubated at 37° C. with 5% CO2 and 85% humidity for 4 hours. The medium was then changed to pre-warmed PHH culture medium containing 4% polyethylene glycol (PEG) MW8000 (Sigma, Cat. P1458-50ML) and 1% DMSO (Sigma, Cat. D2650). 5.8×10^6 genomic equivalents of HBV were added into the medium.
At 24 hours post-infection, the cells were gently washed with PBS and refreshed with PHH culture medium supplemented with 1% DMSO, and 0.25 mg/mL Matrix gel (Corning, Cat. 356237) at 200 μL per well. All plates were immediately placed in at 37° C. CO2 incubator. 24 hours later, serial dilutions of compounds made with DMSO were further diluted with the same culture medium (PHH culture medium supplemented with 1% DMSO and 0.25 mg/mL Matrix gel as described above) before they were added to the cells to reach desired final compound concentrations and 1% DMSO concentration. The medium containing the compounds were refreshed every three days.
At 9 days post-compound treatment, extracellular HBsAg level were measured with Chemiluminescence Immuno Assay (CLIA) kit (Autobio, HBsAg Quantitative CLIA). Extracellular HBV DNA was extracted by MagNA Pure 96 system (Roche) and then determined by quantitative PCR with the following primers and probe: […]
HBsAg IC50 and HBV DNA IC50 values were derived from the dose-response curve using 4 parameter logistic curve fit method.

For orientation: IC50 means the concentration that gives 50% inhibition. For `O=C(c1cc(=O)c2cccc(Cl)c2o1)N1Cc2ccc(Br)cc2C1` [Example 4, 2-(5-bromoisoindoline-2-carbonyl)-8-chloro-chromen-4-one], the figures for the IC50 in experiment [1] and in experiment [2] were 3.6 µM and 6.58 µM, respectively. For `Cc1cc(Cl)ccc1NC(=O)c1oc2ccc(Cl)cc2c(=O)c1C` [Example 3, 6-chloro-N-(4-chloro-2-methylphenyl)-3-methyl-4-oxo-chromene-2-carboxamide], the half-inhibitory concentration (IC50) in experiment [1] came to 0.64 µM; in experiment [2] it was 6.47 µM. For `O=C(Nc1ccc(Cl)cc1C(F)(F)F)c1cc(=O)c2cccc(Cl)c2o1` [Example 12, 8-chloro-N-(4-chloro-2-(trifluoromethyl)phenyl)-4-oxo-chromene-2-carboxamide], in experiment [2], the half-maximal inhibitory concentration (IC50) was 34.2 µM. In other words, the double-digit micromolar range. In experiment [2], `Cc1cc(Cl)ccc1NC(=O)c1cc(=O)c2cc(Cl)cc(Cl)c2o1` [Example 13, 6,8-dichloro-N-(4-chloro-2-methylphenyl)-4-oxo-chromene-2-carboxamide] displayed an IC50 of 36.3 µM. Regarding `O=C(Nc1ccc(Cl)cc1OC1CC(C(=O)O)C1)c1cc(=O)c2cccc(Cl)c2o1` (stereo not drawn) [Example 7, 3-(5-chloro-2-(8-chloro-4-oxo-chromene-2-carboxamido)phenoxy)cyclobutane-1-carboxylic Acid], the results for the IC50 in experiment [1] and in experiment [2] were 1.66 µM and 10 µM, respectively. For `Cc1cc(OCCOC2CC(C(=O)O)C2)ccc1NC(=O)c1cc(=O)c2cccc(Cl)c2o1` (stereo not drawn) [Example 2, 3-(2-(4-(8-chloro-4-oxo-chromene-2-carboxamido)-3-methylphenoxy)ethoxy)cyclobutanecarboxylic Acid], it took 4.36 µM to reach half-maximal inhibition in experiment [2] (IC50).
